Data taken from PubChem BioAssay (NCI).
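Cultured in 96-well plates, cells were exposed to test compound for 48 hours across five concentrations. Definition used: TGI = concentration required for complete inhibition of growth.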

Columns and labels:
Assay in all cases: NCI tumour cell line growth inhibition, 48 h
M14 melanoma = tested on: M14 melanoma
OVCAR-8 ovarian = tested on: OVCAR-8 ovarian
UACC-257 melanoma = tested on: UACC-257 melanoma
OVCAR-3 ovarian = tested on: OVCAR-3 ovarian
SK-MEL-5 melanoma = tested on: SK-MEL-5 melanoma
HOP-62 NSCLC = tested on: HOP-62 NSCLC
RXF-631 renal = tested on: RXF-631 renal
MOLT-4 leukemia = tested on: MOLT-4 leukemia
KM20L2 colon = tested on: KM20L2 colon
SW-620 colon = tested on: SW-620 colon
SK-MEL-28 melanoma = tested on: SK-MEL-28 melanoma
KM12 colon = tested on: KM12 colon
LXFL 529 NSCLC = tested on: LXFL 529 NSCLC
NCI-H460 lung = tested on: NCI-H460 lung
RXF 393 renal = tested on: RXF 393 renal
NCI-H522 lung = tested on: NCI-H522 lung
SR leukemia = tested on: SR leukemia
M19-MEL melanoma = tested on: M19-MEL melanoma
A498 renal = tested on: A498 renal
LOX IMVI melanoma = tested on: LOX IMVI melanoma
RPMI-8226 leukemia = tested on: RPMI-8226 leukemia
HCT-116 colon = tested on: HCT-116 colon
DLD-1 colon = tested on: DLD-1 colon
HT29 colon = tested on: HT29 colon
SNB-19 CNS = tested on: SNB-19 CNS
SNB-78 CNS = tested on: SNB-78 CNS
COLO 205 colon = tested on: COLO 205 colon
CAKI-1 renal = tested on: CAKI-1 renal
HCT-15 colon = tested on: HCT-15 colon
ACHN renal = tested on: ACHN renal
MALME-3M melanoma = tested on: MALME-3M melanoma
CCRF-CEM leukemia = tested on: CCRF-CEM leukemia
EKVX NSCLC = tested on: EKVX NSCLC
OVCAR-5 ovarian = tested on: OVCAR-5 ovarian
IGROV1 ovarian = tested on: IGROV1 ovarian
SN12C renal = tested on: SN12C renal
K-562 leukemia = tested on: K-562 leukemia
UO-31 renal = tested on: UO-31 renal
NCI-H23 lung = tested on: NCI-H23 lung
HOP-92 NSCLC = tested on: HOP-92 NSCLC
DMS 273 small cell lung = tested on: DMS 273 small cell lung
SF-295 CNS = tested on: SF-295 CNS
U251 CNS = tested on: U251 CNS
SNB-75 CNS = tested on: SNB-75 CNS
SK-OV-3 ovarian = tested on: SK-OV-3 ovarian
TK-10 renal = tested on: TK-10 renal
SF-539 CNS = tested on: SF-539 CNS
SK-MEL-2 melanoma = tested on: SK-MEL-2 melanoma
SF-268 CNS = tested on: SF-268 CNS
OVCAR-4 ovarian = tested on: OVCAR-4 ovarian
A549 NSCLC = tested on: A549 NSCLC
786-0 renal = tested on: 786-0 renal
HOP-18 NSCLC = tested on: HOP-18 NSCLC
HL-60(TB) leukemia = tested on: HL-60(TB) leukemia
DMS 114 small cell lung = tested on: DMS 114 small cell lung
HCC-2998 colon = tested on: HCC-2998 colon
XF 498 CNS = tested on: XF 498 CNS
NCI-H226 lung = tested on: NCI-H226 lung
UACC-62 melanoma = tested on: UACC-62 melanoma

Compound `CN(C)[C@@H]1C(=O)C(C(=O)NCN2CCN(C(=N)N=C(N)N)CC2)=C(O)[C@@]2(O)C(=O)C3=C(O)c4c(O)cccc4[C@@](C)(O)[C@H]3C[C@@H]12` has a TGI (M14 melanoma) of 1.14 µM, a TGI (OVCAR-8 ovarian) of 11.2 µM and a TGI (UACC-257 melanoma) of 6.29 µM. The TGI (OVCAR-3 ovarian) was 34.8 µM, the TGI (SK-MEL-5 melanoma) was 0.431 µM and the TGI (HOP-62 NSCLC) was 3.99 µM. It also gave a TGI (RXF-631 renal) of 0.763 µM, a TGI (MOLT-4 leukemia) of 0.349 µM and a TGI (KM20L2 colon) of 11.6 µM. For the same compound, the TGI (SW-620 colon) was 11 µM, the TGI (SK-MEL-28 melanoma) was 0.541 µM and the TGI (KM12 colon) was 16.9 µM. It also gave a TGI (LXFL 529 NSCLC) of 11.1 µM, a TGI (NCI-H460 lung) of 20.2 µM and a TGI (RXF 393 renal) of 0.245 µM. It also gave a TGI (NCI-H522 lung) of 0.143 µM, a TGI (SR leukemia) of 2.3 µM and a TGI (M19-MEL melanoma) of 2.28 µM. The TGI (A498 renal) was 4.88 µM, the TGI (LOX IMVI melanoma) was 2.04 µM and the TGI (RPMI-8226 leukemia) was 14.7 µM. For the same compound, the TGI (HCT-116 colon) was 17.8 µM, the TGI (DLD-1 colon) was 19.6 µM and the TGI (HT29 colon) was 16.7 µM. For the same compound, the TGI (SNB-19 CNS) was 15.9 µM, the TGI (SNB-78 CNS) was 0.471 µM and the TGI (COLO 205 colon) was 14.1 µM. The TGI (CAKI-1 renal) was greater than 100 µM, the TGI (HCT-15 colon) was 12.2 µM and the TGI (ACHN renal) was greater than 100 µM. The TGI (MALME-3M melanoma) was 0.566 µM, the TGI (CCRF-CEM leukemia) was greater than 100 µM and the TGI (EKVX NSCLC) was 0.624 µM. The TGI (OVCAR-5 ovarian) was 0.709 µM, the TGI (IGROV1 ovarian) was 22 µM and the TGI (SN12C renal) was 15.1 µM. The TGI (K-562 leukemia) was 10.5 µM, the TGI (UO-31 renal) was 0.982 µM and the TGI (NCI-H23 lung) was 0.33 µM. The TGI (HOP-92 NSCLC) was 0.635 µM, the TGI (DMS 273 small cell lung) was 0.922 µM and the TGI (SF-295 CNS) was 6.82 µM. The TGI (U251 CNS) was 0.809 µM, the TGI (SNB-75 CNS) was 0.338 µM and the TGI (SK-OV-3 ovarian) was 15.8 µM. The TGI (TK-10 renal) was 14.8 µM, the TGI (SF-539 CNS) was 0.415 µM and the TGI (SK-MEL-2 melanoma) was 0.255 µM.

With `[N-]=[N+]=Nc1ncnc2c1sc(=S)n2-c1ccccc1` the TGI (M14 melanoma) was greater than 100 µM, the TGI (OVCAR-8 ovarian) was greater than 100 µM and the TGI (UACC-257 melanoma) was greater than 100 µM. The TGI (OVCAR-3 ovarian) was greater than 100 µM, the TGI (SK-MEL-5 melanoma) was greater than 100 µM and the TGI (HOP-62 NSCLC) was 52.7 µM. It also gave a TGI (MOLT-4 leukemia) greater than 100 µM, a TGI (SF-268 CNS) greater than 100 µM and a TGI (KM20L2 colon) greater than 100 µM. It also gave a TGI (SW-620 colon) greater than 100 µM, a TGI (SK-MEL-28 melanoma) greater than 100 µM and a TGI (KM12 colon) greater than 100 µM. It also gave a TGI (LXFL 529 NSCLC) greater than 100 µM, a TGI (NCI-H460 lung) greater than 100 µM and a TGI (RXF 393 renal) greater than 100 µM. The TGI (NCI-H522 lung) was greater than 100 µM, the TGI (SR leukemia) was greater than 100 µM and the TGI (OVCAR-4 ovarian) was greater than 100 µM. The TGI (M19-MEL melanoma) was greater than 100 µM, the TGI (A498 renal) was greater than 100 µM and the TGI (LOX IMVI melanoma) was greater than 100 µM. It also gave a TGI (RPMI-8226 leukemia) greater than 100 µM, a TGI (HCT-116 colon) greater than 100 µM and a TGI (DLD-1 colon) greater than 100 µM. For the same compound, the TGI (HT29 colon) was greater than 100 µM, the TGI (SNB-19 CNS) was greater than 100 µM and the TGI (SNB-78 CNS) was greater than 100 µM. The TGI (A549 NSCLC) was greater than 100 µM, the TGI (COLO 205 colon) was greater than 100 µM and the TGI (CAKI-1 renal) was greater than 100 µM. It also gave a TGI (HCT-15 colon) greater than 100 µM, a TGI (ACHN renal) greater than 100 µM and a TGI (MALME-3M melanoma) greater than 100 µM. It also gave a TGI (CCRF-CEM leukemia) greater than 100 µM, a TGI (786-0 renal) greater than 100 µM and a TGI (EKVX NSCLC) greater than 100 µM. It also gave a TGI (HOP-18 NSCLC) greater than 100 µM, a TGI (HL-60(TB) leukemia) greater than 100 µM and a TGI (OVCAR-5 ovarian) greater than 100 µM. For the same compound, the TGI (DMS 114 small cell lung) was greater than 100 µM, the TGI (IGROV1 ovarian) was greater than 100 µM and the TGI (HCC-2998 colon) was greater than 100 µM. For the same compound, the TGI (SN12C renal) was greater than 100 µM, the TGI (K-562 leukemia) was greater than 100 µM and the TGI (XF 498 CNS) was greater than 100 µM. The TGI (UO-31 renal) was greater than 100 µM, the TGI (NCI-H23 lung) was greater than 100 µM and the TGI (HOP-92 NSCLC) was greater than 100 µM. For the same compound, the TGI (DMS 273 small cell lung) was greater than 100 µM, the TGI (SF-295 CNS) was greater than 100 µM and the TGI (U251 CNS) was greater than 100 µM. The TGI (NCI-H226 lung) was greater than 100 µM, the TGI (SNB-75 CNS) was greater than 100 µM and the TGI (SK-OV-3 ovarian) was greater than 100 µM. It also gave a TGI (TK-10 renal) greater than 100 µM, a TGI (UACC-62 melanoma) greater than 100 µM and a TGI (SF-539 CNS) greater than 100 µM. It also gave a TGI (SK-MEL-2 melanoma) greater than 100 µM.
